ChEMBL document CHEMBL1149093, “Design and synthesis of new templates derived from pyrrolopyrimidine as selective multidrug-resistance-associated protein inhibitors in multidrug resistance” (J Med Chem, 2004)

Experiments:
[1] = in vivo; settings: mouse, ip, 50 mg/kg
[2] = in vivo; settings: mouse, iv, 20 mg/kg
[3] = in vivo; settings: mouse, plasma, ip, 50 mg/kg
[4] = in vivo; settings: mouse, plasma, iv, 20 mg/kg
[5] = in vivo; settings: mouse, ip, 50 mg/kg; remark: listed apart in the source
[6] = in vivo; settings: mouse, iv, 20 mg/kg; remark: listed apart in the source

AUC [1] | AUC [2] | Cmax [3] | Cmax [4] | half-life [5] | half-life [6] | SMILES
30600 ng·h/mL | 5100 ng·h/mL | 26.4 µM | 9 µM | 6.86 h | 2.4 h | O=[N+]([O-])c1cc([N+](=O)[O-])c2[nH]c3c(N4CCN(CCc5ccc(F)c(F)c5)CC4)nc(CN4CCOCC4)nc3c2c1
 | 14000 ng·h/mL |  | 15 µM |  | 3.03 h | Cn1c2cccc(C(N)=O)c2c2nc(CN3CCOCC3)nc(N3CCN(CCc4ccc(F)c(F)c4)CC3)c21
 | 6320 ng·h/mL |  | 11.9 µM |  | 1.97 h | Cn1c2ccnc(N3CCOCC3)c2c2ncnc(N3CCN(CCc4ccc(F)c(F)c4)CC3)c21
